Each structure is given as a SMILES string. Read-outs that look alike come from different tables or passages of the source. Where only a bound is given, the exact number is not on record here.

In general, IC50 refers to the concentration that gives 50% inhibition.

This test has as its target T1, V600E full-length B-Raf (Homo sapiens, UniProt P15056, V600E).
T1 construct: 1 μM FSBA-MEK and 20 nM V600E full-length B-Raf; made in house; host or cells: sf9 insect cells (baculovirus)
The experiment in a line: B-Raf IC50 Assay (B-RAF V600E inhibition assay, Example A). The test is classed as biochemical. An outline of the steps: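 Full-length V600E B-Raf (20 nM, from Sf9 baculovirus) was preincubated 15 min with 1 μM FSBA-modified wild-type MEK in pH 7.2 Pipes/KCl/MgCl2 buffer, then started with 4 μM ATP plus [γ-33P]ATP. After 60 min at 22 °C, TCA-quenched product was filter-captured and 33P incorporation counted by scintillation.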

[1] abbreviates: B-Raf V600E assay of Example A: less than 100 nM, read-out: IC50.
Where [2] appears, read: B-Raf V600E assay of Example A: less than about 1 μM, read-out: IC50.
[3] abbreviates: incorporation of radio labeled phosphate from [γ-33P]ATP into FSBA-modified wild-type MEK, 4 μM ATP, 20 nM V600E full-length B-Raf, 60-minute incubation, 22° C., read-out: BRAF V600E IC50.

T1 sequence (P15056 whole entry V600E): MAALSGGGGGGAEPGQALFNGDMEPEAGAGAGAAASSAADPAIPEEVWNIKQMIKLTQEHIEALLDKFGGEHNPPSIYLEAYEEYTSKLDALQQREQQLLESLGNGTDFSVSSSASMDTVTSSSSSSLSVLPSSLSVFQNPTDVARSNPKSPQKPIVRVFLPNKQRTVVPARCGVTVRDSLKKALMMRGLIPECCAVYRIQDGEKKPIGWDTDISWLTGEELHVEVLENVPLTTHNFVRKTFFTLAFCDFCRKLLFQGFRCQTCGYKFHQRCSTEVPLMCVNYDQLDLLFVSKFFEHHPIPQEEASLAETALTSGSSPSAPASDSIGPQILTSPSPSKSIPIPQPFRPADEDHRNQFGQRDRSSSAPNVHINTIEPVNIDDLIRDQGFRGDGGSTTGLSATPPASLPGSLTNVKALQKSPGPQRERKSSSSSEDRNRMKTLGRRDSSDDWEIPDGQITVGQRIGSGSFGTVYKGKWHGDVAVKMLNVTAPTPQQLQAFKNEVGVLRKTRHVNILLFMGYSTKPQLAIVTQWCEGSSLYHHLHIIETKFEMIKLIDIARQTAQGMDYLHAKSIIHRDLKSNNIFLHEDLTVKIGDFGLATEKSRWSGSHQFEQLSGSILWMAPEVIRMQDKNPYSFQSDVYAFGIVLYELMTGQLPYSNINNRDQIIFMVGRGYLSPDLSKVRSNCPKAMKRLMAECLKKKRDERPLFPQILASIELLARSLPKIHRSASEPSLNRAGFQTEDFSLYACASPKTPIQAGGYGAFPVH

As for `CCCS(=O)(=O)Nc1ccc(F)c(NC(=O)c2csc3c(NOC)ncnc23)c1Cl` [Example 37, 4-Methoxyamino-thieno[3,2-d]pyrimidine-7-carboxylic acid [2-chloro-6-fluoro-3-(propane-1-sulfonylamino)-phenyl]-amide], the concentration for half-maximal inhibition (IC50) was < 100 nM under setting [1], < 1000 nM under setting [2] and 9.2 nM under setting [3].
On the same counts, the results for `CCCS(=O)(=O)Nc1ccc(Cl)c(NC(=O)c2csc3c(NN4CCOCC4)ncnc23)c1Cl` [Example 67, 4-(Morpholin-4-ylamino)-thieno[3,2-d] pyrimidine-7-carboxylic acid [2,6-dichloro-3-(propane-1-sulfonyl-amino)-phenyl]-amide] are < 100 nM, < 1000 nM and 0.2 nM.
For the compound `Nc1ncnc2c(C(=O)Nc3c(Cl)ccc(NS(=O)(=O)CCCF)c3F)nsc12` [Example 32, 7-Amino-isothiazolo[4,5-d]pyrimidine-3-carboxylic acid [6-chloro-2-fluoro-3-(3-fluoro-propane-1-sulfonylamino)-phenyl]-amide], the IC50 runs as follows: under setting [1], < 100 nM; under setting [2], < 1000 nM; under setting [3], 0.18 nM.
On to `CCCS(=O)(=O)Nc1ccc(F)c(NC(=O)c2csc3c(NCC(F)F)ncnc23)c1F` [Example 53, 4-(2,2-Difluoro-ethylamino)-thieno[3,2-d] pyrimidine-7-carboxylic acid [2,6-difluoro-3-(propane-1-sulfonylamino)-phenyl]-amide], for which the IC50 was < 100 nM under setting [1], < 1000 nM under setting [2] and 26.5 nM under setting [3].
The like results for `CCCS(=O)(=O)Nc1ccc(F)c(NC(=O)c2csc3c(C(F)F)ncnc23)c1F` [Example 42, 4-Difluoromethyl-thieno[3,2-d]pyrimidine-7-carboxylic acid [2,6-difluoro-3-(propane-1-sulfonylamino)-phenyl]-amide] were, in that order, < 100 nM, < 1000 nM and 26 nM.
For `CCCS(=O)(=O)Nc1cc(F)c(F)c(NC(=O)c2csc3c(NC4COC4)ncnc23)c1F` [Example 87, 4-(Oxetan-3-ylamino)-thieno[3,2-d] pyrimidine-7-carboxylic acid [2,3,6-trifluoro-5-(propane-1-sulfonyl-amino)-phenyl]amid], the 50% inhibitory concentration (IC50) under setting [1] is < 100 nM, the IC50 under setting [2] was < 1000 nM and the half-inhibitory concentration (IC50) under setting [3] turned out to be 15.1 nM.
On the same counts, the results for `CCCS(=O)(=O)Nc1ccc(Cl)c(NC(=O)c2csc3c(NC4CCOC4)ncnc23)c1Cl` (stereo not shown) [Example 71, 4-(Tetrahydro-furan-3-ylamino)-thieno[3,2-d] pyrimidine-7-carboxylic acid [2,6-dichloro-3-(propane-1-sulfonyl-amino)phenyl]-amid] are < 100 nM, < 1000 nM and 14.4 nM.
On the same counts, the results for `Nc1ncnc2c(C(=O)Nc3c(F)ccc(NS(=O)(=O)CC4CC4)c3F)csc12` [Example 18, 4-Amino-thieno[3,2-d] pyrimidine-7-carboxylic acid (3-cyclopropyl-methanesulfonyl-amino-2,6-di-fluoro-phenyl)-amide] are < 100 nM, < 1000 nM and 7.4 nM.
On the same counts, the results for `CN(C)S(=O)(=O)Nc1ccc(F)c(NC(=O)c2csc3c(N)ncnc23)c1F` [Example 29, 4-Amino-N-(3-(N,N-dimethylsulfamoylamino)-2,6-difluorophenyl)thieno[3,2-d]pyrimidine-7-carboxamide] are < 100 nM, < 1000 nM and 88 nM.
As to `CCCS(=O)(=O)Nc1ccc(F)c(NC(=O)c2csc3c(NCC4CC4)ncnc23)c1F` [Example 56, 4-(Cyclopropyl-methylamino)-thieno[3,2-d] pyrimidine-7-carboxylic acid [2,6-difluoro-3-(propane-1-sulfonylamino)-phenyl]-amide], the half-inhibitory concentration (IC50) is, setting by setting: under setting [1], < 100 nM; under setting [2], < 1000 nM; under setting [3], 75.1 nM.
With `CCCS(=O)(=O)Nc1cc(F)c(F)c(NC(=O)c2csc3c(NCC)ncnc23)c1F` [Example 85, 4-Ethylamino-thieno[3,2-d] pyrimidine-7-carboxylic acid [2,3,6-trifluoro-5-(propane-1-sulfonyl-amino)-phenyl]-amide], the IC50 is, setting by setting: under setting [1], < 100 nM; under setting [2], < 1000 nM; under setting [3], 5.1 nM.
On the same counts, the results for `O=C(Nc1c(Cl)ccc(NS(=O)(=O)CCCF)c1F)c1nsc2cncnc12` [Example 112, Isothiazolo[4,5-d] pyrimidine-3-carboxylic acid [6-chloro-2-fluoro-3-(3-fluoro-propane-1-sulfonylamino)-phenyl]-amide] are < 100 nM, < 1000 nM and 7.29 nM.
As for `CCCC(C)Nc1ncnc2c(C(=O)Nc3c(F)ccc(NS(=O)(=O)CCC)c3F)csc12` (stereo not shown) [Example 51, 4-(1-Methyl-butylamino)-thieno[3,2-d] pyrimidine-7-carboxylic acid [2,6-difluoro-3-(propane-1-sulfonylamino)-phenyl]-amide], the IC50 runs as follows: under setting [2], < 1000 nM; under setting [3], 221 nM.
With `CCCS(=O)(=O)Nc1ccc(Cl)c(NC(=O)c2csc3c(NC4CN(C)C4)ncnc23)c1Cl` [Example 75, 4-(1-Methyl-azetidin-3-ylamino)-thieno[3,2-d] pyrimidine-7-carboxylic acid [2,6-dichloro-3-(propane-1-sulfonyl-amino)-phenyl]amide], the IC50 under setting [3] is > 1000 nM.
On to `CCCS(=O)(=O)Nc1cc(Cl)cc(NC(=O)c2csc3c(N)ncnc23)c1F` [Example 21, 4-Amino-thieno[3,2-d] pyrimidine-7-carboxylic acid [5-chloro-2-fluoro-3-(propane-1-sulfonyl-amino)-phenyl]-amide], for which the IC50 is < 100 nM under setting [1], < 1000 nM under setting [2] and 47.1 nM under setting [3].
On the same counts, the results for `CCCS(=O)(=O)Nc1ccc(F)c(NC(=O)c2sc(C)c3c(N)ncnc23)c1F` [Example 99, 4-Amino-5-methyl-thieno[3,4-a]pyrimidine-7-carboxylic acid [2,6-difluoro-3-(propane-1-sulfonylamino)-phenyl]-amide] are < 100 nM, < 1000 nM and 3 nM.
On the same counts, the results for `CCCS(=O)(=O)Nc1ccc(F)c(NC(=O)c2csc3c(NC4CC4)ncnc23)c1F` [Example 47] are < 100 nM, < 1000 nM and 4.7 nM.
The like results for `Nc1ncnc2c(C(=O)Nc3c(F)ccc(NS(=O)(=O)c4ccccc4)c3F)csc12` [Example 11, 4-Amino-thieno[3,2-d]pyrimidine-7-carboxylic acid (3-benzenesulfonylamino-2,6-difluoro-phenyl)-amide] were, in that order, < 100 nM, < 1000 nM and 0.89 nM.
As to `CCCS(=O)(=O)Nc1ccc(F)c(NC(=O)c2csc3c(C)ncnc23)c1F` [Example 40, 4-Methyl-thieno[3,2-d]pyrimidine-7-carboxylic acid [2,6-difluoro-3-(propane-1-sulfonylamino)-phenyl]-amide], the IC50 was < 100 nM under setting [1], < 1000 nM under setting [2] and 85.5 nM under setting [3].
With `CCCS(=O)(=O)Nc1ccc(Cl)c(NC(=O)c2csc3c(NC4CCNCC4)ncnc23)c1Cl` [Example 79, 4-(Piperidin-4-ylamino)-thieno[3,2-d] pyrimidine-7-carboxylic acid [2,6-dichloro-3-(propane-1-sulfonyl-amino)-phenyl]amide], the IC50 under setting [2] is < 1000 nM and the IC50 under setting [3] was 159 nM.
With `Nc1ncnc2c(C(=O)Nc3c(F)c(F)cc(NS(=O)(=O)CCCF)c3F)csc12` [Example 10, 4-Amino-thieno[3,2-d]pyrimidine-7-carboxylic acid[2,3,6-trifluoro-5-(3-fluoro-propane-1-sulfonylamino)-phenyl]-amide], the half-inhibitory concentration (IC50) under setting [1] was < 100 nM, the concentration for half-maximal inhibition (IC50) under setting [2] is < 1000 nM and the IC50 under setting [3] is 0.72 nM.
On the same counts, the results for `CCCS(=O)(=O)Nc1ccc(Cl)c(NC(=O)c2csc3c(NCC(F)(F)F)ncnc23)c1Cl` [Example 78, 4-(2,2,2-Trifluoro-ethylamino)-thieno[3,2-d] pyrimidine-7-carboxylic acid [2,6-dichloro-3-(propane-1-sulfonyl-amino)-phenyl]-amide] are < 100 nM, < 1000 nM and 11.7 nM.
The like results for `CCCS(=O)(=O)Nc1ccc(F)c(NC(=O)c2csc3c(NCC)ncnc23)c1Cl` [Example 44, 4-Ethylamino-thieno[3,2-d]pyrimidine-7-carboxylic acid [2-chloro-6-fluoro-3-(propane-1-sulfonylamino)-phenyl]-amide] were, in that order, < 100 nM, < 1000 nM and 8.7 nM.
`CCCS(=O)(=O)Nc1ccc(F)c(NC(=O)c2snc3c(NCC)ncnc23)c1F` [Example 35, 7-Ethylamino-isothiazolo[4,3-d]pyrimidine-3-carboxylic acid [2,6-difluoro-3-(propane-1-sulfonylamino)-phenyl]-amide]: the half-inhibitory concentration (IC50) runs as follows: under setting [2], < 1000 nM; under setting [3], 105 nM.
As for `CC(C)CS(=O)(=O)Nc1ccc(F)c(NC(=O)c2csc3c(N)ncnc23)c1Cl` [Example 8, 4-Amino-thieno[3,2-d]pyrimidine-7-carboxylic acid[2-chloro-6-fluoro-3-(2-methyl-propane-1-sulfonylamino)-phenyl]-amide], the concentration for half-maximal inhibition (IC50) was < 100 nM under setting [1], < 1000 nM under setting [2] and 0.6 nM under setting [3].

The values are drawn from patent publication US20120157439A1, “RAF INHIBITOR COMPOUNDS AND METHODS OF USE THEREOF” (GENENTECH, INC., priority 2009, published 2012).
